From PubChem BioAssay AID330 (DTP/NCI, 2004)
Values joined by “and” are separate entries in the source; they are usually repeats but may differ in a detail not shown here. Equal entries are not always repeated. Inconclusive results and toxic doses are left out. Square brackets hold non-standard residues; d marks the D form. Peptide text beside a SMILES is read from it. * marks the point of attachment. Cbz = O=C(OCc1ccccc1)*; Nva = CCC[CH](N)C(=O)O

Test system: P388 leukemia ip, CD2F1 mice, survival T/C
Assay: NCI In Vivo Anticancer Drug Screen. Data for tumor model P388 Leukemia (intraperitoneal) in CD2F1 (CDF1) mice
Conditions: endpoint: median survival time, higher = longer survival
In short: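 Mice carrying the transplanted tumor received test compound or vehicle. Survival was recorded in each group, and the value is the treated-group measurement divided by that of the vehicle-treated control group.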

[1] = dose: 50.0 mg/kg/injection, schedule: Q01DX009 (ip), vehicle: Klucel (hydroxypropylcellulose) (HPC)
[2] = dose: 100.0 mg/kg/injection, schedule: Q01DX009 (ip), vehicle: Klucel (hydroxypropylcellulose) (HPC)
[3] = dose: 200.0 mg/kg/injection, schedule: Q01DX009 (ip), vehicle: Klucel (hydroxypropylcellulose) (HPC)
[4] = dose: 50.0 mg/kg/injection, schedule: Q01DX005 (ip), vehicle: Klucel (hydroxypropylcellulose) (HPC)
[5] = dose: 100.0 mg/kg/injection, schedule: Q01DX005 (ip), vehicle: Klucel (hydroxypropylcellulose) (HPC)
[6] = dose: 200.0 mg/kg/injection, schedule: Q01DX005 (ip), vehicle: Klucel (hydroxypropylcellulose) (HPC)

SMILES: COc1cc2c(c(OC)c1OC)-c1ccc(OC)c(=O)cc1[C@@H](NC(=O)c1ccc([N+](=O)[O-])cc1)CC2
- T/C (dose: 0.25 mg/kg/injection, schedule: Q01DX009 (ip), vehicle: Klucel (hydroxypropylcellulose) (HPC)): 109 % of control and 115 % of control
- T/C (dose: 0.5 mg/kg/injection, schedule: Q01DX009 (ip), vehicle: Klucel (hydroxypropylcellulose) (HPC)): 114 % of control
- T/C (dose: 0.78 mg/kg/injection, schedule: Q01DX009 (ip), vehicle: Klucel (hydroxypropylcellulose) (HPC)): 108 % of control
- T/C (dose: 1.0 mg/kg/injection, schedule: Q01DX009 (ip), vehicle: Klucel (hydroxypropylcellulose) (HPC)): 114 % of control and 124 % of control
- T/C (dose: 1.56 mg/kg/injection, schedule: Q01DX009 (ip), vehicle: Klucel (hydroxypropylcellulose) (HPC)): 112 % of control
- T/C (dose: 2.0 mg/kg/injection, schedule: Q01DX009 (ip), vehicle: Klucel (hydroxypropylcellulose) (HPC)): 124 % of control
- T/C (dose: 3.12 mg/kg/injection, schedule: Q01DX009 (ip), vehicle: Klucel (hydroxypropylcellulose) (HPC)): 160 % of control
- T/C (dose: 4.0 mg/kg/injection, schedule: Q01DX009 (ip), vehicle: Klucel (hydroxypropylcellulose) (HPC)): 166 % of control
- T/C (dose: 6.25 mg/kg/injection, schedule: Q01DX009 (ip), vehicle: Klucel (hydroxypropylcellulose) (HPC)): 198 % of control

SMILES: C=CC1CCC[S+]1CC(=O)C(Cl)(Cl)Cl (stereo not given)
- T/C (dose: 100.0 mg/kg/injection, schedule: Q01DX001 (ip), vehicle: saline with Tween-80): 102 % of control
- T/C (dose: 200.0 mg/kg/injection, schedule: Q01DX001 (ip), vehicle: saline with Tween-80): 109 % of control

SMILES: CCCCCCCCCCCCCC(=O)Nc1ncc([N+](=O)[O-])s1
- T/C [1]: 94 % of control
- T/C [2]: 94 % of control
- T/C [3]: 100 % of control

SMILES: O=c1oc(-c2ccccc2)nnc1-c1ccccc1
- T/C [1]: 100 % of control
- T/C [2]: 101 % of control
- T/C [3]: 107 % of control

SMILES: COc1cccc(C(=O)NC[n+]2ccccc2)c1
- T/C (dose: 25.0 mg/kg/injection, schedule: Q04DX003 (ip), vehicle: saline): 100 % of control
- T/C (dose: 50.0 mg/kg/injection, schedule: Q04DX003 (ip), vehicle: saline): 100 % of control
- T/C (dose: 100.0 mg/kg/injection, schedule: Q04DX003 (ip), vehicle: saline): 109 % of control

SMILES: N#Cc1n[nH]c2nc(=S)sc(N)c12
- T/C (dose: 100.0 mg/kg/injection, schedule: Q04DX002 (ip), vehicle: water): 103 % of control
- T/C (dose: 200.0 mg/kg/injection, schedule: Q04DX002 (ip), vehicle: water): 90 % of control
- T/C (dose: 400.0 mg/kg/injection, schedule: Q04DX002 (ip), vehicle: water): 97 % of control

SMILES: Cc1ncc2n1-c1ccc(Cl)cc1C(c1ccccc1F)=NC2
- T/C (dose: 50.0 mg/kg/injection, schedule: Q01DX009 (ip), vehicle: saline): 103 % of control
- T/C (dose: 100.0 mg/kg/injection, schedule: Q01DX009 (ip), vehicle: saline): 112 % of control

SMILES: COc1cc(CCC(C)=O)ccc1OC(=O)c1c(-c2c(F)cccc2Cl)noc1C
- T/C [4]: 91 % of control
- T/C [5]: 91 % of control
- T/C [6]: 91 % of control

SMILES: CCCC(NC(=O)OCc1ccccc1)C(=O)NC(CCSC)C(N)=O (stereo not given) (Cbz-[Nva]-Met-NH2; configuration not given here)
- T/C [4]: 106 % of control
- T/C [5]: 97 % of control
- T/C [6]: 88 % of control

SMILES: CC1(C)CC(C)(OC(=O)c2ccccc2Cl)[N+]([O-])=N1 (stereo not given) (tested in a mixture with another compound)
- T/C (dose: 12.5 mg/kg/injection, schedule: Q01DX009 (ip), vehicle: other): 99 % of control
- T/C (dose: 25.0 mg/kg/injection, schedule: Q01DX009 (ip), vehicle: other): 98 % of control
- T/C (dose: 50.0 mg/kg/injection, schedule: Q01DX009 (ip), vehicle: other): 93 % of control
- T/C (dose: 100.0 mg/kg/injection, schedule: Q01DX009 (ip), vehicle: other): 94 % of control
- T/C (dose: 200.0 mg/kg/injection, schedule: Q01DX009 (ip), vehicle: other): 100 % of control

SMILES: NC(N)=NCC(N)C(=O)O (stereo not given)
- T/C [4]: 101 % of control
- T/C [5]: 104 % of control
- T/C [6]: 104 % of control

SMILES: Clc1ccc(N=Cc2c3ccccc3cc3ccccc23)c(Cl)c1
- T/C (dose: 6.25 mg/kg/injection, schedule: Q01DX009 (ip), vehicle: saline with Tween-80): 101 % of control
- T/C (dose: 12.5 mg/kg/injection, schedule: Q01DX009 (ip), vehicle: saline with Tween-80): 101 % of control
- T/C (dose: 25.0 mg/kg/injection, schedule: Q01DX009 (ip), vehicle: saline with Tween-80): 93 % of control

SMILES: CCCCOC(=O)CCC(C)=O
- T/C (dose: 100.0 mg/kg/injection, schedule: Q04DX003 (ip), vehicle: saline with Tween-80): 100 % of control
- T/C (dose: 200.0 mg/kg/injection, schedule: Q04DX003 (ip), vehicle: saline with Tween-80): 100 % of control
- T/C (dose: 400.0 mg/kg/injection, schedule: Q04DX003 (ip), vehicle: saline with Tween-80): 104 % of control
